Assay [1] deals with T1, human μ-opioid receptor (Homo sapiens, UniProt P35372).
T1 construct: host or cells: CHO-K1
Kind of assay: cell-based. The following applies: CHO-K1 cells, forskolin 20 μM, 30 min incubation; read-out: EC50, activation of μ-opioid receptor (reduction of intracellular cAMP). An excerpt: The intrinsic activity of the ligands was studied using commercially cell-based assays, composed by recombinant CHO-K1 cells that overexpress only the human μ-opioid receptor, detecting the levels of second messengers that reflect the activation of this receptor. To assess the activation of the μ-opioid receptor through the recruitment of G protein signaling pathway, we used the cyclic adenosine monophosphate (cAMP) Hunter® eXpress G protein-coupled receptor (GPCR) Assay (DiscoverX, Freemont, CA, USA) following the manufacturer instructions. In this system, the endogenous cAMP competes with an exogenous cAMP coupled to a truncated β-galactosidase fragment (provided by the assay) for binding to a cAMP antibody. Only the unbound exogenous cAMP-β-galactosidase fragment binds to a complementary β-galactosidase fragment to form the active enzyme. […] Control cells were incubated only with forskolin. The resulting luminescence was measured with a microplate reader Synergy HT (Biotek, Winooski, VT, USA) or a microplate reader SpectraMax M3 (Molecular Devices, Sunnyvale, CA, USA).
(§1) The fitting of the data to the correlation was assessed by its corresponding coefficient of determination (R^2), using GraphPad Prism (San Diego, CA, USA).

In assay [2] the target is T1, human μ-opioid receptor. Format: cell-based. Particulars: all tested concentrations; listed as racemic SAL.
From the text: To assess the activation of the μ-opioid receptor through the recruitment of the β-arrestin signaling pathway, we used a PathHunter® eXpress β-Arrestin GPCR chemiluminescent assay (DiscoverX) following the manufacturer instructions. In this system, the human μ-opioid receptor is fused to a small fragment of β-galactosidase (PK) and co-expressed in cells expressing a fusion protein of β-arrestin and the complementary fragment of β-galactosidase (EA). Activation of the μ-opioid receptor stimulates binding of β-arrestin to the PK-tagged receptor allowing the complementation of the two enzyme fragments of β-galactosidase. This action leads to an activation of the enzyme that can be measured using a chemiluminescent reagent resulting in luminescence, which is proportional to the recruitment of β-arrestin. […] The resulting luminescence was determined with a microplate reader Synergy HT (Biotek).
as §1

Another assay addresses μ-opioid receptor. On the set-up: method as in Lucchi et al., 1982. The following applies: rat striatum; ref Lucchi et al., 1982; read-out: IC50, displacement of [met]-enkephalin; cited from earlier work.

Entries after “also recorded” stand apart in the source; their conditions may differ.

T1 sequence (P35372 whole entry): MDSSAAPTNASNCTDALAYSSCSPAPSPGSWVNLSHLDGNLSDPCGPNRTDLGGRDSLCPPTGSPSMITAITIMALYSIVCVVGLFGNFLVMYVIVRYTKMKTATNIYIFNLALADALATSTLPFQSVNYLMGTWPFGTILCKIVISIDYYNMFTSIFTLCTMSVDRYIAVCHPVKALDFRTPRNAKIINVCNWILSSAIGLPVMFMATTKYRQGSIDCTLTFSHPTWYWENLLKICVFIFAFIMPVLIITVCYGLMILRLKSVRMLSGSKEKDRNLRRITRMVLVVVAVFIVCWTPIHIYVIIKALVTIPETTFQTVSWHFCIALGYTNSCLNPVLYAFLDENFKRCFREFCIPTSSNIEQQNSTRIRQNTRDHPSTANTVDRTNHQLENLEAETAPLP

With `CC1NCCc2cc(O)c(O)cc21` (racemic) [(R/S)-SAL, 1-methyl-1,2,3,4-tetrahydro-6,7-dihydroxy-isoquinoline], the concentration giving a half-maximal response (EC50) at human μ-opioid receptor [1] turned out to be 20 µM. In addition, the “Activation of β-arrestin signaling pathway (in words)” value at human μ-opioid receptor [2] is “did not promote the recruitment of β-arrestin; also recorded: unable to activate the β-arrestin signaling pathway; also recorded: does not induce the recruitment of β-arrestin”. The IC50 at μ-opioid receptor is 10 µM. As for `C[C@H]1NCCc2cc(O)c(O)cc21` [(R)-SAL], at human μ-opioid receptor [1], the EC50 stood at 600 µM.

For the molecule `C[C@@H]1NCCc2cc(O)c(O)cc21` [(S)-SAL], at human μ-opioid receptor [1], the EC50 was determined as 9 µM.

Usually EC50 stands for the concentration needed to bring the measured effect to its halfway point. For orientation: IC50 means the point on the concentration scale where inhibition reaches its midpoint.

These data come from publication PMC5253357, “Racemic Salsolinol and its Enantiomers Act as Agonists of the μ-Opioid Receptor by Activating the Gi Protein-Adenylate Cyclase Pathway” (Frontiers in Behavioral Neuroscience, 2017).
